Assay results published in patent US5449694A, “(-)-ritodrine, therapeutic compositions and use, and method of preparation” (priority 1992, dated 1995).
Where two headings read alike, the source gives them in different places.

Legend:
guinea pig = assay: Effect on vascular permeability (Evans blue dye infiltration, skin); type: in vivo, Hartley guinea pig
Description: Effect on Vascular Permeability
Three Hartley guinea pigs were employed. (±)-Ritodrine hydrochloride, (+)-ritodrine hydrochloride or (-) -ritodrine hydrochloride were administered intracutaneously at a dose of 10^-2 -10^-5 g/ml into the shaved rear part of the guinea pigs. Immediately after the administration, 1 ml of a 1% Evans blue solution was administered intravenously. After 30 minutes, the animals were slaughtered by exsanguination under anesthetization with excessive amount of pentobarbital sodium. The skin was peeled to observe from the internal side of the skin the extent of dye infiltration at the site where the test material was administered. The area with dye having a size ([longer diameter+shorter diameter]/2) of 5 mm or more was judged positive.

uterus in situ = assay: Effect on uterine movement in situ (oxytocin-facilitated, pregnant rat); type: in vivo, pregnant Wistar rat; conditions: for ED50 / minimal effective dose: Rattus norvegicus, iv; for ED50: read-out: concentration (dose) required for suppressing 50% of the increase of the uterus due to oxytocin; for minimal effective dose: read-out: dose at which suppressing effect on uterine movement was exhibited; for concentration dependence of suppressing effect: i.v., 0.05-15 mg/kg
Source text: Effect on Uterine Movement in Situ
After a pregnant Wistar rat was anesthesized with urethane-α-chloralose, the abdominal part was incised along the median line and a polyethylene cylinder was inserted. The center of the uterine horn was suspended with a suture, and the uterine movement was isotonically recorded via an isotonic transducer. When the spontaneous movement of the uterus was stabilized, 50 mU/kg/min of oxytocin was infused intravenously to facilitate the movement. When the response due to oxytocin became constant, either (±)-ritodrine hydrochloride, (+)-ritodrine hydrochloride or (-)-ritodrine hydrochloride (0.05-15 mg/kg) was administered intravenously to observe the variation of tension and frequency and amplitude of the spontaneous movement. The suppressing effect of the uterine movement on respective parameters was expressed as the intensity of the activity by either (±)-ritodrine hydrochloride, (+)-ritodrine hydrochloride or (-)-ritodrine hydrochloride based on the state facilitated by oxytocin as 100%. The variations of the tension, and the frequency and amplitude of the spontaneous movement are shown in Tables 2, 3 and 4, respectively. […] In either parameter, the (-)-isomer was effective in a concentration of 1/2-1/3 to the (±)-isomer. The (+)-isomer was effective at a dose of 1.5 mg/kg or more.

[1] = tested on: smooth muscle (myometrium and tracheal muscle); assay: Smooth muscle relaxation activity, myometrium and tracheal muscle taken together; set-up: species or system rat, guinea pig; conditions: from the activities on myometrium and tracheal muscle
Description: (§1) Effect on an Isolated Rat Myometrium Preparation
(§2) After blowing the cranium of a female virgin Wistar rat, uterus was extracted. The preparation was suspended in a Magnus tube filled with a nutrient solution (Tyrode solution) which was maintained at 36°±1° C. and saturated with a mixed gas of 95% O2 and 5% CO2. Contractile tension was measured via an isotonic transducer and recorded on a polygraph. When the spotaneous movement was stabilized, oxytocin (2×10^-2 U/ml) was administered and either (±)-ritodrine hydrochloride, (+)-ritodrine hydrochloride or (-)-ritodrine hydrochloride (10^-7 -10^-4 M) was applied to the Magnus tube to observe the variation of the contractile tension. Suppresive effect on the oxytocin-contracted uterus was expressed by the intensity of activity of (±)-ritodrine hydrochloride, (+)-ritodrine hydrochloride or (-)-ritodrine hydrochloride based on 100% of the contraction by oxytocin.
(§3) Effect on an Isolated Preparation of Tracheal Muscle in Guinea Pig
After Hartley guinea pigs having body weight of 430-510 g, were anesthesized with ether, tracheae were excised to make chain preparation according to the method of Akcasu (A. Akcasu, Arch. Int. Pharmacodyn., 1959, 122, 201). […] Contractile tension was measured via an isotonic transducer and recorded on a polygraph. […]

mice = assay: Acute toxicity test in mouse (i.v.); type: in vivo, male ICR mice
Description: (§4) Acute Toxicity Test in Mouse
(§5) (±)-Ritodrine hydrochloride, (+)-ritodrine hydrochloride or (-)-ritodrine hydrochloride was administered intravenously at a dose of 40-100 mg/kg to male ICR mice to examine their motality.

[2] = Acute toxicity test in mouse (i.v.); type: in vivo, male ICR mice; conditions: mouse, in vivo, iv
Description: as §4, §5

isolated rat myometrium = assay: Effect on an isolated rat myometrium preparation (oxytocin-induced contraction); set-up: species or system female virgin Wistar rat; conditions: for concentration dependence of relaxation activity: 10^-7 -10^-4 M; for minimal effective concentration: read-out: concentration at which relaxation activity was exhibited; for IC50: read-out: concentration required for suppressing 50% of the contraction of an isolated myometrium caused by oxytocin (IC50)
Description: as §1, §2

[3] = tested on: guinea pig tracheal smooth muscle; assay: Effect on an isolated preparation of tracheal muscle in guinea pig (relaxation); set-up: species or system Hartley guinea pig; conditions: for relaxation response of tracheal muscle: 10^-8 -10-4M; for IC50: Cavia porcellus, read-out: concentration required for relaxing 50% of the maximum relaxation effect (IC50); for sequence of intensities of relaxation activity: decreasing sequence
Description: as §3
After Hartley guinea pigs having body weight of 430-510 g, were anesthesized with ether, tracheae were excised to make chain preparation according to the method of Akcasu (A. Akcasu, Arch. Int. Pharmacodyn., 1959, 122, 201). The preparations were suspended in a Magnus tube filled with an air-saturated nutrient solution (Tyrode solution) maintained at 37°±1° C. Contractile tension was measured via an isotonic transducer and recorded on a polygraph. Either (±)-ritodrine hydrochloride, (+)-ritodrine hydrochloride or (-)-ritodrine hydrochloride was cumulatively applied so as the concentration in the Magnus tube to be 10^-8 -10-4M.

[4] = cited from earlier work
[5] = acute toxicity, range stated for all three types, read-out: 50% lethal dose (LD50)
[6] = mice, confidence limits given, read-out: LD50 (Confidence limit)
[7] = oxytocin 50 mU/kg/min i.v. infusion
[8] = tension, frequency and amplitude of spontaneous movement
[9] = Rattus norvegicus, oxytocin 2×10^-2 U/ml, hydrochlorides applied, Tyrode solution 36°C
[10] = oxytocin-contracted isolated rat myometrium
[11] = hydrochlorides, cumulative application, Tyrode solution 37°C

SMILES | concentration dependence of suppressing effect (uterus in situ) | mortality at 50 mg/kg (mice; i.v., dead/total) | mortality at 60 mg/kg (mice; i.v., dead/total) | mortality at 70 mg/kg (mice; i.v., dead/total) | mortality at 80 mg/kg (mice; i.v., dead/total) | mortality at 90 mg/kg (mice; i.v., dead/total) | LD50 [2, 5] [mg/kg] | LD50 [2, 6] [mg/kg] | concentration dependence of relaxation activity (isolated rat myometrium) | intensity of activity relative to (±)-ritodrine, by IC50 on isolated myometrium (isolated rat myometrium) | relaxation response of tracheal muscle [3] | sequence of intensities of relaxation activity [3] | relaxation intensity relative to (±)-ritodrine, by IC50 on isolated tracheal muscle [3] | vascular permeability, positive at 0.001% (guinea pig; guinea pig) | vascular permeability, positive at 0.01% (guinea pig; guinea pig) | vascular permeability, positive at 0.1% (guinea pig; guinea pig) | ED50 (uterus in situ; [7]) [mg/kg] | minimal effective dose (uterus in situ; [8]) [mg/kg] | sequence of safeties in developing the same level of relaxation effect on smooth muscle (mice; mouse, in vivo) | IC50 (isolated rat myometrium; [9]) [nM] | further results
C[C@H](NCCc1ccc(O)cc1)[C@H](O)c1ccc(O)cc1.Cl [(-)-isomer, (1R,2S)-2-(4-Hydroxyphenethylamino)-1-(4-hydroxyphenyl)-1-propanol hydrochloride] | increased depending on the concentration | 1/5 | 3/5 | 3/5 | 3/5 | 5/5 | 50 to 100 | 64 | increased depending on the concentration | about 2.6 times | relaxation response depending on concentration | (-)-isomer>(±)-isomer>>(+)-isomer | about 2.3 times |  |  |  |  |  |  |  | vascular permeability, positive at 0.001% (guinea pig; intracutaneous, 0.001%, positive = dye area 5 mm or more, positive/total): 0/3; vascular permeability, positive at 0.01% (guinea pig; intracutaneous, 0.01%, positive = dye area 5 mm or more, positive/total): 1/3; vascular permeability, positive at 0.1% (guinea pig; intracutaneous, 0.1%, positive = dye area 5 mm or more, positive/total): 2/3; vascular permeability, positive at 1% (guinea pig; intracutaneous, 1%, positive = dye area 5 mm or more, positive/total): 3/3; ED50 (uterus in situ): 0.059 mg/kg; minimal effective dose (uterus in situ): ≥ 0.05 mg/kg; smooth muscle relaxation activity relative to the (±)-type [1]: 2-3 times; mortality at 40 mg/kg (mice; i.v., 40 mg/kg, dead/total): 0/5; sequence of safeties in developing the same level of relaxation effect on smooth muscle (mice; ratio of smooth muscle relaxation to lethal toxicity, decreasing sequence): (-)-type>(±)-type>>(+)-type; minimal effective concentration (isolated rat myometrium; Rattus norvegicus): 0.1 µM; IC50 (isolated rat myometrium; Rattus norvegicus): 1350 nM; IC50 [3]: 59.7 nM
C[C@H](NCCc1ccc(O)cc1)[C@H](O)c1ccc(O)cc1 (relative stereo) [(±)-isomer, (±)-erythro-1-(p-hydroxyphenyl)-2-[2-(p-hydroxyphenyl)ethylamino]-1-propanol] | increased depending on the concentration | 0/5 | 0/5 | 1/5 | 2/5 | 4/5 | 50 to 100 | 83 | increased depending on the concentration |  | relaxation response depending on concentration | (-)-isomer>(±)-isomer>>(+)-isomer |  | 0/3 | 0/3 | 3/3 | 0.106 | ≥ 0.05 | (-)-type>(±)-type>>(+)-type | 3530 | vascular permeability, positive at 1% (guinea pig; guinea pig): 3/3; side effects ([4]; background): increase in heart rate; effectiveness in preventing premature birth / suppressing uterine contraction ([4]; known from Japanese Patent Publications): effective in preventing premature birth owing to its excellent activity for suppressing uterine contraction; mortality at 100 mg/kg (mice; i.v., 100 mg/kg, dead/total): 4/5; minimal effective concentration (isolated rat myometrium; [10]): 0.1 µM; IC50 [3, 11]: 136 nM
C[C@@H](NCCc1ccc(O)cc1)[C@@H](O)c1ccc(O)cc1 [(+)-isomer] |  | 0/5 | 1/5 | 2/5 | 4/5 | 5/5 | 50 to 100 | 70 |  | 1/15 | relaxation response depending on concentration | (-)-isomer>(±)-isomer>>(+)-isomer | about 1/40 | 0/3 | 1/3 | 3/3 | 3.61 | ≥ 1.5 | (-)-type>(±)-type>>(+)-type | 54600 | minimal effective concentration (isolated rat myometrium; [10]): ≥ 10 µM; IC50 [3, 11]: 5610 nM
